From patent publication US9174994B2, “Enhanced treatment regimens using mTor inhibitors” (INTELLIKINE LLC, priority 2011, dated 2015)

Test: Phase I clinical trial: treatment-emergent adverse events (patients, n (%)), dose limiting toxicity, MTD
Assay type: in vivo
[1] = Table 8: Total QDx5d QW (N = 6)
[2] = Table 8: Total QW Dosing (N = 15)
[3] = all 3 intermittent dosing regimens, n=35

Procedure: Safety, maximum tolerated dose (MTD), pharmacokinetics (PK) and preliminary antitumor activity were evaluated.
Pharmacodynamic (PD) endpoints were evaluated in surrogate (peripheral blood cells [PBCs], skin) and tumor tissues for the phosphorylation of TORC1-dependent markers (4EBP1/S6), and TORC2-dependent markers (AKT/PRAS40).

CC(C)n1nc(-c2ccc3oc(N)nc3c2)c2c(N)ncnc21 [compound A]
Weight decreased (Table 8: Total QDx3d QW (N = 14)): 0 (0%)
Catheter site inflammation [1]: 0 (0%)
Catheter site pain [1]: 0 (0%)
Coagulopathy [1]: 0 (0%)
Confusional state [1]: 0 (0%)
Cough [1]: 0 (0%)
DIARRHEA [1]: 0 (0%)
Dizziness [1]: 0 (0%)
Dyspnoea exertional [1]: 0 (0%)
Eye infection [1]: 0 (0%)
Fatigue [1]: 0 (0%)
Gastritis [1]: 0 (0%)
Gravitational oedema [1]: 0 (0%)
Headache [1]: 0 (0%)
Hyperbilirubinaemia [1]: 0 (0%)
Hypertransaminasaemia [1]: 0 (0%)
Hypertriglyceridaemia [1]: 0 (0%)
Hypocalcaemia [1]: 0 (0%)
Hypomagnesaemia [1]: 0 (0%)
Hypotension [1]: 0 (0%)
Insomnia [1]: 0 (0%)
Low fever [1]: 0 (0%)
Malaise [1]: 0 (0%)
Nausea [1]: 1 (17%)
Oral discomfort [1]: 0 (0%)
Orthostatic hypotension [1]: 0 (0%)
Palmar-plantar erythrodysaesthesia syndrome [1]: 0 (0%)
Panniculitis [1]: 0 (0%)
Platelet count decreased [1]: 0 (0%)
Polyuria [1]: 0 (0%)
Pyrexia [1]: 0 (0%)
Rash [1]: 0 (0%)
Rash macular [1]: 0 (0%)
Skin discolouration [1]: 0 (0%)
Skin exfoliation [1]: 0 (0%)
Urinary tract infection [1]: 0 (0%)
Urine tract infection [1]: 1 (17%)
Vomiting [1]: 1 (17%)
WEAKNESS [1]: 0 (0%)
Weight decreased [1]: 0 (0%)
Catheter site inflammation [2]: 0 (0%)
Catheter site pain [2]: 0 (0%)
Coagulopathy [2]: 0 (0%)
Confusional state [2]: 0 (0%)
Cough [2]: 0 (0%)
DIARRHEA [2]: 1 (7%)
Dizziness [2]: 0 (0%)
Dyspnoea exertional [2]: 0 (0%)
Eye infection [2]: 0 (0%)
Fatigue [2]: 0 (0%)
Gastritis [2]: 0 (0%)
Gravitational oedema [2]: 0 (0%)
Headache [2]: 0 (0%)
Hyperbilirubinaemia [2]: 0 (0%)
Hypertransaminasaemia [2]: 0 (0%)
Hypertriglyceridaemia [2]: 0 (0%)
Hypocalcaemia [2]: 0 (0%)
Hypomagnesaemia [2]: 0 (0%)
Hypotension [2]: 0 (0%)
Insomnia [2]: 0 (0%)
Low fever [2]: 0 (0%)
Malaise [2]: 1 (7%)
Nausea [2]: 0 (0%)
Oral discomfort [2]: 1 (7%)
Orthostatic hypotension [2]: 0 (0%)
Palmar-plantar erythrodysaesthesia syndrome [2]: 0 (0%)
Panniculitis [2]: 0 (0%)
Platelet count decreased [2]: 0 (0%)
Polyuria [2]: 0 (0%)
Pyrexia [2]: 0 (0%)
Rash [2]: 1 (7%)
Rash macular [2]: 0 (0%)
Skin discolouration [2]: 0 (0%)
Skin exfoliation [2]: 0 (0%)
Urinary tract infection [2]: 0 (0%)
Urine tract infection [2]: 0 (0%)
Vomiting [2]: 0 (0%)
WEAKNESS [2]: 1 (7%)
Weight decreased [2]: 0 (0%)
Grade 3 or greater TEAE: Abdominal pain upper (Total (N = 60)): 1 (2%)
Grade 3 or greater TEAE: Anaemia (Total (N = 60)): 1 (2%)
Grade 3 or greater TEAE: Aspartate aminotransferase increased (Total (N = 60)): 1 (2%)
Grade 3 or greater TEAE: Asthenia (Total (N = 60)): 1 (2%)
Grade 3 or greater TEAE: Catheter related infection (Total (N = 60)): 1 (2%)
Grade 3 or greater TEAE: Cellulitis (Total (N = 60)): 1 (2%)
Grade 3 or greater TEAE: Diarrhoea (Total (N = 60)): 3 (5%)
Grade 3 or greater TEAE: Disease progression (Total (N = 60)): 1 (2%)
Grade 3 or greater TEAE: Enterocutaneous fistula (Total (N = 60)): 1 (2%)
Grade 3 or greater TEAE: Gamma-glutamyltransferase increased (Total (N = 60)): 2 (3%)
Grade 3 or greater TEAE: Gastroenteritis (Total (N = 60)): 1 (2%)
Grade 3 or greater TEAE: Hyperglycaemia (Total (N = 60)): 5 (8%)
Grade 3 or greater TEAE: Hypokalaemia (Total (N = 60)): 2 (3%)
Grade 3 or greater TEAE: Hyponatraemia (Total (N = 60)): 2 (3%)
Grade 3 or greater TEAE: Lymphopenia (Total (N = 60)): 4 (7%)
Grade 3 or greater TEAE: Pancreatitis acute (Total (N = 60)): 1 (2%)
Grade 3 or greater TEAE: Pleural effusion (Total (N = 60)): 1 (2%)
Grade 3 or greater TEAE: Pruritus (Total (N = 60)): 2 (3%)
Grade 3 or greater TEAE: Rash (Total (N = 60)): 7 (12%)
Grade 3 or greater TEAE: Rash macular (Total (N = 60)): 1 (2%)
Grade 3 or greater TEAE: Somnolence (Total (N = 60)): 1 (2%)
Grade 3 or greater TEAE: Thrombocytopenia (Total (N = 60)): 2 (3%)
Grade 3 or greater TEAE: Urinary tract infection (Total (N = 60)): 1 (2%)
Patients Reporting at Least One Grade 3 or Greater TEAE (Total (N = 60)): 25 (42%)
Anaemia (Total QD Dosing (N = 25)): 2 (8%)
Asthenia (Total QD Dosing (N = 25)): 6 (24%)
Blood creatinine increased (Total QD Dosing (N = 25)): 6 (24%)
Coagulopathy (Total QD Dosing (N = 25)): 1 (4%)
Confusional state (Total QD Dosing (N = 25)): 1 (4%)
Cough (Total QD Dosing (N = 25)): 1 (4%)
Decreased appetite (Total QD Dosing (N = 25)): 6 (24%)
Dehydration (Total QD Dosing (N = 25)): 2 (8%)
Diarrhoea (Total QD Dosing (N = 25)): 8 (32%)
Dizziness (Total QD Dosing (N = 25)): 1 (4%)
Dry mouth (Total QD Dosing (N = 25)): 5 (20%)
Dry skin (Total QD Dosing (N = 25)): 1 (4%)
Dysgeusia (Total QD Dosing (N = 25)): 8 (32%)
Dyspepsia (Total QD Dosing (N = 25)): 1 (4%)
Dyspnoea (Total QD Dosing (N = 25)): 1 (4%)
Dyspnoea exertional (Total QD Dosing (N = 25)): 1 (4%)
Eye infection (Total QD Dosing (N = 25)): 1 (4%)
Fatigue (Total QD Dosing (N = 25)): 6 (24%)
Gastritis (Total QD Dosing (N = 25)): 1 (4%)
Gravitational oedema (Total QD Dosing (N = 25)): 1 (4%)
Hypercholesterolaemia (Total QD Dosing (N = 25)): 5 (20%)
Hyperglycaemia (Total QD Dosing (N = 25)): 22 (88%)
Hypocalcaemia (Total QD Dosing (N = 25)): 1 (4%)
Insomnia (Total QD Dosing (N = 25)): 1 (4%)
Lymphopenia (Total QD Dosing (N = 25)): 3 (12%)
Mucosal inflammation (Total QD Dosing (N = 25)): 8 (32%)
Muscle spasms (Total QD Dosing (N = 25)): 1 (4%)
Nausea (Total QD Dosing (N = 25)): 9 (36%)
Orthostatic hypotension (Total QD Dosing (N = 25)): 1 (4%)
Panniculitis (Total QD Dosing (N = 25)): 1 (4%)
Patients Reporting at Least One Related TEAE (Total QD Dosing (N = 25)): 25 (100%)
Polyuria (Total QD Dosing (N = 25)): 1 (4%)
Pruritus (Total QD Dosing (N = 25)): 9 (36%)
Rash (Total QD Dosing (N = 25)): 13 (52%)
Skin discolouration (Total QD Dosing (N = 25)): 1 (4%)
Skin exfoliation (Total QD Dosing (N = 25)): 1 (4%)
Thrombocytopenia (Total QD Dosing (N = 25)): 4 (16%)
Vomiting (Total QD Dosing (N = 25)): 6 (24%)
Weight decreased (Total QD Dosing (N = 25)): 1 (4%)
Alanine aminotransferase increased (Total QDx3d QW (N = 14)): 1 (7%)
Asthenia (Total QDx3d QW (N = 14)): 3 (21%)
Catheter site inflammation (Total QDx3d QW (N = 14)): 1 (7%)
Catheter site pain (Total QDx3d QW (N = 14)): 1 (7%)
Decreased appetite (Total QDx3d QW (N = 14)): 1 (7%)
Diarrhoea (Total QDx3d QW (N = 14)): 2 (14%)
Dry skin (Total QDx3d QW (N = 14)): 1 (7%)
Dysgeusia (Total QDx3d QW (N = 14)): 1 (7%)
Dyspnoea (Total QDx3d QW (N = 14)): 1 (7%)
Fatigue (Total QDx3d QW (N = 14)): 1 (7%)
Headache (Total QDx3d QW (N = 14)): 1 (7%)
Hyperbilirubinaemia (Total QDx3d QW (N = 14)): 1 (7%)
Hypercholesterolaemia (Total QDx3d QW (N = 14)): 1 (7%)
Hyperglycaemia (Total QDx3d QW (N = 14)): 6 (43%)
Hypertransaminasaemia (Total QDx3d QW (N = 14)): 1 (7%)
Hypertriglyceridaemia (Total QDx3d QW (N = 14)): 1 (7%)
Hypomagnesaemia (Total QDx3d QW (N = 14)): 1 (7%)
Hypotension (Total QDx3d QW (N = 14)): 1 (7%)
Low fever (Total QDx3d QW (N = 14)): 1 (7%)
Lymphopenia (Total QDx3d QW (N = 14)): 1 (7%)
Mucosal inflammation (Total QDx3d QW (N = 14)): 7 (50%)
Nausea (Total QDx3d QW (N = 14)): 6 (43%)
Palmar-plantar erythrodysaesthesia syndrome (Total QDx3d QW (N = 14)): 1 (7%)
Patients Reporting at Least One Related TEAE (Total QDx3d QW (N = 14)): 11 (79%)
Platelet count decreased (Total QDx3d QW (N = 14)): 1 (7%)
Pruritus (Total QDx3d QW (N = 14)): 4 (29%)
Pyrexia (Total QDx3d QW (N = 14)): 1 (7%)
Rash (Total QDx3d QW (N = 14)): 4 (29%)
Rash macular (Total QDx3d QW (N = 14)): 1 (7%)
Urinary tract infection (Total QDx3d QW (N = 14)): 1 (7%)
Vomiting (Total QDx3d QW (N = 14)): 3 (21%)
Asthenia (Total QDx3d QW (N = 14), 2nd Asthenia line): 1 (7%)
Diarrhoea (Total QDx5d QW (N = 6)): 1 (17%)
Patients Reporting at Least One Related TEAE (Total QDx5d QW (N = 6)): 2 (33%)
Rash (Total QDx5d QW (N = 6)): 1 (17%)
Urine tract infection (Total QDx5d QW (N = 6)): 1 (17%)
Vomiting (Total QDx5d QW (N = 6)): 1 (17%)
Nausea (Total QDx5d QW (N = 6), 1st Nausea line): 1 (17%)
Nausea (Total QDx5d QW (N = 6), 2nd Nausea line): 1 (17%)
ASTHENIA (Total QW Dosing (N = 15)): 1 (7%)
ATHENIA (Total QW Dosing (N = 15)): 1 (7%)
Alanine aminotransferase increased (Total QW Dosing (N = 15)): 1 (7%)
Aspartate aminotransferase increased (Total QW Dosing (N = 15)): 2
Asthenia (Total QW Dosing (N = 15)): 2
Blood creatinine increased (Total QW Dosing (N = 15)): 1 (7%)
Blood triglycerides increased (Total QW Dosing (N = 15)): 1 (7%)
DIARRHEA (Total QW Dosing (N = 15)): 1 (7%)
Decreased appetite (Total QW Dosing (N = 15)): 1 (7%)
Diarrhoea (Total QW Dosing (N = 15)): 3
Dysgeusia (Total QW Dosing (N = 15)): 1 (7%)
Dyspepsia (Total QW Dosing (N = 15)): 1 (7%)
HYPERGLYCEMIA (Total QW Dosing (N = 15)): 2
Hyperglycaemia (Total QW Dosing (N = 15)): 5
Lymphopenia (Total QW Dosing (N = 15)): 1 (7%)
Malaise (Total QW Dosing (N = 15)): 1 (7%)
Mucosal inflammation (Total QW Dosing (N = 15)): 3
Muscle spasms (Total QW Dosing (N = 15)): 1 (7%)
Nausea (Total QW Dosing (N = 15)): 10
Oral discomfort (Total QW Dosing (N = 15)): 1 (7%)
Patients Reporting at Least One Related TEAE (Total QW Dosing (N = 15)): 13
Pruritus (Total QW Dosing (N = 15)): 1 (7%)
RASH (Total QW Dosing (N = 15)): 1 (7%)
Rash (Total QW Dosing (N = 15)): 1 (7%)
Vomiting (Total QW Dosing (N = 15)): 5
WEAKNESS (Total QW Dosing (N = 15)): 1 (7%)
asthenia, AE considered possibly related [3]: 23%
diarrhea, AE considered possibly related [3]: 20%
hyperglycemia, AE considered possibly related [3]: 37%
mucosal inflammation, AE considered possibly related [3]: 29%
nausea, AE considered possibly related [3]: 51%
rash, AE considered possibly related [3]: 23%
vomiting, AE considered possibly related [3]: 26%
grade of the majority of AEs considered possibly related (any regimen): Grade 1 or 2
MTD (intermittent dosing): not reached
